{"source": "patent US20150315241A1", "about": "“Antibiotic Peptides” (priority 2007, published 2015)", "key": {"[1]": {"system": "Mycobacterium vaccae", "format": "cell-based", "details": "20 h", "method": "The minimal inhibition concentrations (MIC) of the apidaecin-derived peptides and peptide-derivatives were determined by a growth inhibition assay using a serial peptide dilution in sterilized round-bottom 96-well plates (polystyrene, U-bottom, Greiner Bio-One GmbH) with a final volume of 100 μL per well. The bacteria, e.g., E. coli BL21 A1, were grown in nutrient broth (NB, Carl Roth GmbH+Co. KG, Karlsruhe, Germany) at 37° C. over night. To each well of the 96-well plate, 50 μL of the overnight culture adjusted to 5×10^6 CFU/mL in 1% TSB were added. Lyophilized peptides and peptidomimetics were dissolved in 1% TSB (tryptic soy broth) or water to give a final concentration of 250 μg/mL. Fifty μL of the peptide or peptidomimetics solution were added to the first well of a row on the plate and mixed. Fifty μL of the first well containing the peptide solution were transferred to the second well, mixed and again 50 μL transferred to the next well and so on. Thereby, a two-fold dilution series was obtained starting at 250 μg/mL in the first well down to 120 ng/mL in the 12th well of a row giving a final peptide or peptidomimetics concentration from 125 μg/mL (well 1) to 60 ng/mL (well 12). Plates were incubated at 37° C. for 20 hrs. The absorbance was measured at 595 nm using a TECAN micro plate spectrophotometer (Tecan, Germany). All peptides and peptidomimetics were measured in triplicates. Sterilized water was used as a negative control.\nThe bacteria strains were tested: • Eschericha coli 1103, 10233, BL 21 AI, DC 2, • Klebsiella pneumoniae 681, • Micrococcus luteus ATCC 10240, • Mycobacterium vaccae • Bactillus subtillis 347."}, "[2]": {"system": "B. subtilis 347", "format": "cell-based, Bactillus subtillis", "method_in_brief": "(§1)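 Bacteria grown overnight in NB at 37° C. were adjusted to 5×10^6 CFU/mL in 1% TSB and mixed 1:1 with a two-fold peptide series (final 125 μg/mL–60 ng/mL). After 20 hrs at 37° C., A595 was read; triplicates.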"}, "[3]": {"system": "E. coli BL 21 AI", "test": "Growth inhibition assay (MIC)", "format": "cell-based, Escherichia coli", "details": "1% TSB, 37° C., 20 hrs", "method_in_brief": "as §1"}, "[4]": {"system": "E. coli DC 2", "test": "Growth inhibition assay (MIC)", "format": "cell-based, Escherichia coli", "details": "1% TSB, 37° C., 20 hrs", "method_in_brief": "as §1"}, "[5]": {"system": "E. coli 1103", "format": "cell-based, Escherichia coli", "method_in_brief": "as §1"}, "[6]": {"system": "M. luteus ATCC 10240", "format": "cell-based, Micrococcus luteus", "method_in_brief": "as §1"}, "[7]": {"system": "K. pneumonia 681", "format": "cell-based, Klebsiella pneumoniae", "method_in_brief": "as §1"}, "[8]": {"system": "E. coli D31", "format": "cell-based, Escherichia coli", "details": "D31, 20 h", "method_in_brief": "(§2)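 MIC by growth inhibition: overnight NB culture → 5×10^6 CFU/mL in 1% TSB; peptide 2-fold series, final 125 μg/mL to 60 ng/mL; 37° C., 20 hrs; OD595. n=3.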"}, "[9]": {"system": "K. Pneumonia 123132", "test": "Growth inhibition assay (MIC)", "format": "cell-based, Klebsiella pneumoniae", "method_in_brief": "as §2"}, "[10]": {"system": "K. Pneumonia K6, ATCC 700603", "test": "Growth inhibition assay (MIC)", "format": "cell-based, Klebsiella pneumoniae", "details": "multidrug resistant strain; 1% TSB, 37° C., 20 hrs", "method_in_brief": "as §2"}, "[11]": {"system": "R. radiobatter ATCC 15955", "test": "Growth inhibition assay (MIC)", "format": "cell-based, Rhizobium radiobacter", "method_in_brief": "as §2"}, "[12]": {"system": "S. enterica subsp. Enterica serovar. typhi G10215 ATCC 700408", "format": "cell-based, Salmonella enterica", "details": "ATCC 700408, 20 h", "method_in_brief": "as §2"}, "[13]": {"system": "S. typhi S5", "format": "cell-based, Salmonella typhi", "details": "S5, 20 h", "method_in_brief": "as §2"}, "[14]": {"system": "E. coli 45849", "test": "Growth inhibition assay (MIC)", "format": "cell-based, Escherichia coli", "method_in_brief": "as §2"}, "[15]": {"test": "in vitro", "format": "in vitro ADME, mouse", "method_in_brief": "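Peptide or peptidomimetic (0.5 mg/mL aqueous stock) incubated in 25% pooled mouse serum at 37 °C, sampled at 0–6 h, in duplicate. Proteins precipitated with 15% TCA; supernatants neutralized and analyzed by RP-HPLC with 0.1% TFA. Degradation products identified by MALDI-TOF/TOF-MS.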"}, "[16]": {"system": "E. coli 10233", "format": "cell-based, Escherichia coli", "details": "1% TSB, 37° C., 20 hrs", "method_in_brief": "as §1"}, "[17]": {"details": "multidrug resistant strain, 1% TSB, 37° C., 20 hrs"}}, "note": "Where two headings read alike, the source gives them in different places. Where a SMILES comes first, the peptide text is derived from it. Where no end group is shown, it is not given here. [ ]: non-standard residue; d: D form. Orn = NCCC[C@H](N)C(=O)O", "data": [{"molecule": "H-GNNKPVYIPRPRPPHPRLV-NH2 [compound 68]", "values": [{"measurement": "MIC Mycobacterium vaccae", "setting": "[1]", "result": 125, "unit": "µg/mL"}, {"measurement": "MIC B. subtilis 347", "setting": "[2]; 347, 20 h", "result": ">125", "unit": "µg/mL"}, {"measurement": "MIC E. coli BL 21 AI", "setting": "[3]", "result": 7.81, "unit": "µg/mL"}, {"measurement": "MIC E. coli DC 2", "setting": "[4]", "result": 7.81, "unit": "µg/mL"}, {"measurement": "MIC E. coli 1103", "setting": "[5]; 1103, 20 h", "result": 3.9, "unit": "µg/mL"}, {"measurement": "MIC M. luteus ATCC 10240", "setting": "[6]; ATCC 10240, 20 h", "result": 0.24, "unit": "µg/mL"}, {"measurement": "MIC K. pneumonia 681", "setting": "[7]; 20 h", "result": 31.25, "unit": "µg/mL"}]}, {"molecule": "H-GNNRPVYIPRPRPPHPRL-NH2 [compound 66]", "values": [{"measurement": "MIC Mycobacterium vaccae", "setting": "[1]", "result": 125, "unit": "µg/mL"}, {"measurement": "MIC B. subtilis 347", "setting": "[2]; 347, 20 h", "result": 62.5, "unit": "µg/mL"}, {"measurement": "MIC E. coli BL 21 AI", "setting": "[3]", "result": 1.95, "unit": "µg/mL"}, {"measurement": "MIC E. coli DC 2", "setting": "[4]", "result": 1.95, "unit": "µg/mL"}, {"measurement": "MIC E. coli 1103", "setting": "[5]; 1103, 20 h", "result": 3.9, "unit": "µg/mL"}, {"measurement": "MIC M. luteus ATCC 10240", "setting": "[6]; ATCC 10240, 20 h", "result": 1.95, "unit": "µg/mL"}, {"measurement": "MIC K. pneumonia 681", "setting": "[7]; 20 h", "result": 3.9, "unit": "µg/mL"}]}, {"molecule": "Ac-GNNRPVYIPRPRPPHPRL-NH2 [compound 67]", "values": [{"measurement": "MIC Mycobacterium vaccae", "setting": "[1]", "result": 125, "unit": "µg/mL"}, {"measurement": "MIC B. subtilis 347", "setting": "[2]; 347, 20 h", "result": 125, "unit": "µg/mL"}, {"measurement": "MIC E. coli BL 21 AI", "setting": "[3]", "result": 3.91, "unit": "µg/mL"}, {"measurement": "MIC E. coli DC 2", "setting": "[4]", "result": 3.9, "unit": "µg/mL"}, {"measurement": "MIC E. coli 1103", "setting": "[5]; 1103, 20 h", "result": 3.9, "unit": "µg/mL"}, {"measurement": "MIC M. luteus ATCC 10240", "setting": "[6]; ATCC 10240, 20 h", "result": 1.95, "unit": "µg/mL"}, {"measurement": "MIC K. pneumonia 681", "setting": "[7]; 20 h", "result": 3.9, "unit": "µg/mL"}]}, {"molecule": "GNNRPVYIPKPRPPHPRI-NH2 [compound 17]", "values": [{"measurement": "MIC E. coli D31", "setting": "[8]", "result": 32, "unit": "µg/mL"}, {"measurement": "MIC K. Pneumonia 123132", "setting": "[9]; [17]", "result": 16, "unit": "µg/mL"}, {"measurement": "MIC K. Pneumonia K6, ATCC 700603", "setting": "[10]", "result": 32, "unit": "µg/mL"}, {"measurement": "MIC R. radiobatter ATCC 15955", "setting": "[11]; [17]", "result": 0.65, "unit": "µg/mL"}, {"measurement": "MIC E. coli BL 21 AI", "setting": "[3]", "result": 0.98, "unit": "µg/mL"}, {"measurement": "MIC E. coli DC 2", "setting": "[4]", "result": 31.25, "unit": "µg/mL"}, {"measurement": "MIC S. enterica subsp. Enterica serovar. typhi G10215 ATCC 700408", "setting": "[12]", "result": "4 to 8", "unit": "µg/mL"}, {"measurement": "MIC E. coli 1103", "setting": "[5]; 1103, 20 h", "result": 1.95, "unit": "µg/mL"}, {"measurement": "MIC S. typhi S5", "setting": "[13]", "result": 16, "unit": "µg/mL"}, {"measurement": "MIC E. coli 45849", "setting": "[14]; [17]", "result": 8, "unit": "µg/mL"}, {"measurement": "MIC M. luteus ATCC 10240", "setting": "[6]; ATCC 10240, 20 h", "result": 0.98, "unit": "µg/mL"}, {"measurement": "MIC K. pneumonia 681", "setting": "[7]; 20 h", "result": 31.25, "unit": "µg/mL"}]}, {"molecule": "CC[C@H](C)[C@H](NC(=O)[C@H](Cc1ccc(O)cc1)NC(=O)[C@@H](NC(=O)[C@@H]1CCCN1C(=O)[C@H](CCCNC(=N)N)NC(=O)[C@H](CC(N)=O)NC(=O)[C@H](CC(N)=O)NC(=O)[C@H](CCCN)NC(C)=O)C(C)C)C(=O)N1CCC[C@H]1C(=O)N[C@@H](CCCN)C(=O)N1CCC[C@H]1C(=O)N[C@@H](CCCNC(=N)N)C(=O)N1CCC[C@H]1C(=O)N1CCC[C@H]1C(=O)N[C@@H](Cc1c[nH]cn1)C(=O)N1CCC[C@H]1C(=O)N[C@@H](CCCNC(=N)N)C(=O)N[C@@H](CC(C)C)C(N)=O", "note": "[compound 13] (Ac-[Orn]NNRPVYIP[Orn]PRPPHPRL-NH2)", "values": [{"measurement": "half-life at 0.061 mg/mL", "setting": "[15]; 25% aqueous mouse serum, 37° C., read-out: Half-life time", "result": 15, "unit": "min"}, {"measurement": "degradation pathway in serum (N-/C-terminal)", "setting": "[15]; 25% mouse serum, metabolites by MALDI-MS", "result": "not degraded N-terminally, but only from the C-terminal end"}, {"measurement": "MIC B. subtilis 347", "setting": "[2]; 1% TSB, 37° C., 20 hrs", "result": 125, "unit": "µg/mL"}, {"measurement": "MIC E. coli D31", "setting": "[8]", "result": 4, "unit": "µg/mL"}, {"measurement": "MIC K. Pneumonia 123132", "setting": "[9]; 20 h", "result": 8, "unit": "µg/mL"}, {"measurement": "MIC K. Pneumonia K6, ATCC 700603", "setting": "[10]", "result": 8, "unit": "µg/mL"}, {"measurement": "MIC R. radiobatter ATCC 15955", "setting": "[11]; ATCC 15955, 20 h", "result": "<0.16", "unit": "µg/mL"}, {"measurement": "MIC E. coli BL 21 AI", "setting": "[3]", "result": 1.95, "unit": "µg/mL"}, {"measurement": "MIC S. enterica subsp. Enterica serovar. typhi G10215 ATCC 700408", "setting": "[12]", "result": "<0.25", "unit": "µg/mL"}, {"measurement": "MIC E. coli 1103", "setting": "[5]; 1% TSB, 37° C., 20 hrs", "result": 3.81, "unit": "µg/mL"}, {"measurement": "MIC E. coli 10233", "setting": "[16]", "result": 1.95, "unit": "µg/mL"}, {"measurement": "MIC S. typhi S5", "setting": "[13]", "result": "<0.5", "unit": "µg/mL"}, {"measurement": "MIC E. coli 45849", "setting": "[14]; 45849, 20 h", "result": 2, "unit": "µg/mL"}, {"measurement": "MIC M. luteus ATCC 10240", "setting": "[6]; 1% TSB, 37° C., 20 hrs", "result": 1.95, "unit": "µg/mL"}, {"measurement": "MIC K. pneumonia 681", "setting": "[7]; 1% TSB, 37° C., 20 hrs", "result": 3.91, "unit": "µg/mL"}]}]}
